In patent US8466145B2, “Dipeptidyl peptidase IV inhibitors” (Orchid Chemicals & Pharmaceuticals Limited, priority 2009, dated 2013):

Columns and labels:
[1] = molecular target: T1, human recombinant Dipeptidyl peptidase IV enzyme (hrDPP IV) (Homo sapiens, UniProt P27487); test: DPP IV assay, cleavage of H-Gly-Pro-AMC by human recombinant DPP-IV enzyme; type: biochemical; conditions: for inhibition at 0.3 µM: 300 nM compound concentration
T1 construct: purchased R&D systems
Experimental: DPP IV activity was determined by the cleavage rate of 7-amino 4-methylcoumarin (AMC) from the substrate H-Gly-Pro-AMC. In brief, the assay was conducted by adding 3 ng of human recombinant Dipeptidyl peptidase IV enzyme (hrDPP IV, available commercially from R&D systems) in 70 μL of the assay buffer (25 mM HEPES, 140 mM NaCl and 1% BSA, pH 7.8) to a 96 well black flat bottom microtitre plate. Test compounds were added as 10 μL additions to all wells except blank and total activity wells. After incubation of test substance with enzyme for 60 minutes at room temperature, 10 μL of 100 μM substrate H-Gly-Pro-AMC was added. After mixing, the plate was left for 20 minutes at room temperature. Then the reaction was terminated by addition of 10 μL of 25% glacial acetic acid. Fluorescence was measured using Spectra Max Gemini XS (Molecular Devices, USA) at an excitation filter of 360 nm and emission filter of 460 nm.
Test compounds dissolved in DMSO were diluted with assay buffer at different concentrations and tested in duplicates. Percentage inhibition was calculated with respect to total activity. IC50 value was calculated using Prism Software.

T1 sequence (P27487 whole entry): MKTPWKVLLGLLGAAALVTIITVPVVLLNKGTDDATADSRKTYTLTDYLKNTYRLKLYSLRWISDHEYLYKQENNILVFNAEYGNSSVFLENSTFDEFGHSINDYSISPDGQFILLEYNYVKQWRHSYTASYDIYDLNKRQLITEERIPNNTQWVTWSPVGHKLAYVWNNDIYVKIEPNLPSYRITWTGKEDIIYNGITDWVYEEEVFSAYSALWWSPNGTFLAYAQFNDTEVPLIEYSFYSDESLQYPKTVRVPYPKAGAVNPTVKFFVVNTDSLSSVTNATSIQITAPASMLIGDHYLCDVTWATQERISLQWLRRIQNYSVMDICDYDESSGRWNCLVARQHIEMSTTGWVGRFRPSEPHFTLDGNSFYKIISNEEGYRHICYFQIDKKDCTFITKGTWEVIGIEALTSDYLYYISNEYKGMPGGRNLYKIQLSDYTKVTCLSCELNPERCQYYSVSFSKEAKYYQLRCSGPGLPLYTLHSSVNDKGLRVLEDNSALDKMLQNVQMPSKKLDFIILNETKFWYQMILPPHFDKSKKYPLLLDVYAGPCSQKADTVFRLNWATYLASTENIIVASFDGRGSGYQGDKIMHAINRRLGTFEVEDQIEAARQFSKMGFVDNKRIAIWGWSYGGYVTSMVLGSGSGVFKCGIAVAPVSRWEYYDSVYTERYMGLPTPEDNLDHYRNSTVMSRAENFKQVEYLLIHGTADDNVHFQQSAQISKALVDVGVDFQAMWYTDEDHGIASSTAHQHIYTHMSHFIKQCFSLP

Row | SMILES | IC50 [1] | melting point | inhibition at 0.3 µM [1]
1 | CC1(C)[C@@H](Cn2nccn2)CC[C@@]1(C)NCC(=O)N1C[C@@H](F)C[C@H]1C#N [Example 10, (2S,4S)-1-(2-((1R,3S)-3-((2H-1,2,3-Triazol-2-yl)methyl)-1,2,2-trimethylcyclopentylamino)acetyl)-4-fluoropyrrolidine-2-carbonitrile] | 215 nM | 84 to 87 °C | 
2 | CC1(C)[C@H](Cn2nccn2)CC[C@]1(C)NCC(=O)N1C[C@@H](F)C[C@H]1C#N [Example 12, (2S,4S)-1-(2-((1S,3R)-3-((2H-1,2,3-Triazol-2-yl)methyl)-1,2,2-trimethylcyclopentylamino)acetyl)-4-fluoropyrrolidine-2-carbonitrile] | 37.2 ± 3.67 nM | 142 to 144 °C | 
3 | CC1(C)[C@@H](Cn2cc(CO)nn2)CC[C@@]1(C)NCC(=O)N1C[C@@H](F)C[C@H]1C#N [Example 15, (2S,4S)-4-Fluoro-1-(2-((1R,3S)-3-((4-(hydroxymethyl)-1H-1,2,3-triazol-1-yl)methyl)-1,2,2-trimethyleyclopentylamino)acetyl)pyrrolidine-2-carbonitrile] |  | 240 to 279 °C | 60.5%
4 | CC1(C)[C@H](Cn2cc(CO)nn2)CC[C@]1(C)NCC(=O)N1C[C@@H](F)C[C@H]1C#N [Example 16, (2S,4S)-4-Fluoro-1-(2-((1S,3R)-3-((4-(hydroxymethyl)-1H-1,2,3-triazol-1-yl)methyl)-1,2,2-trimethylcyclopentylamino)acetyl)pyrrolidine-2-carbonitrile] | 32.5 nM | 76 to 78 °C | 
5 | CC1(C)[C@@H](CNC(=O)C2CCC(F)(F)CC2)CC[C@@]1(C)NCC(=O)N1C[C@@H](F)C[C@H]1C#N [Example 22, N-(((1S,3R)-3-(2-((2S,4S)-2-Cyano-4-fluoropyrrolidin-1-yl)-2-oxoethylamino)-2,2,3-trimethylcyclopentyl)methyl)-4,4-difluorocyclohexane carboxamide] |  | 193 to 195 °C | 72.7%
6 | CC1(C)[C@H](CNC(=O)C2CCC(F)(F)CC2)CC[C@]1(C)NCC(=O)N1C[C@@H](F)C[C@H]1C#N [Example 23, N-(((1R,3S)-3-(2-((2S,4S)-2-Cyano-4-fluoropyrrolidin-1-yl)-2-oxoethylamino)-2,2,3-trimethylcyclopentyl)methyl)-4,4-difluorocyclohexane carboxamide] |  | 189 to 194 °C | 86.2%
7 | CC1(C)[C@@H](CN2CCCCC2)CC[C@@]1(C)NCC(=O)N1C[C@@H](F)C[C@H]1C#N [Example 39, (2S,4S)-4-Fluoro-1-(2-((1R,3S)-1,2,2-trimethyl-3-(piperidin-1-ylmethyl)cyclopentylamino)acetyl)pyrrolidine-2-carbonitrile] |  | 100 to 103 °C | 45.9%
8 | Cc1noc([C@H]2CC[C@@](C)(NCC(=O)N3C[C@@H](F)C[C@H]3C#N)C2(C)C)n1 [Example 50, (2S,4S)-4-Fluoro-1-(2-((1R,3S)-1,2,2-trimethyl-3-(3-methyl-1,2,4-oxadiazol-5-yl)cyclopentylamino)acetyl)pyrrolidine-2-carbonitrile] |  | 147 to 151 °C | 15%
9 | Cc1noc([C@@H]2CC[C@](C)(NCC(=O)N3C[C@@H](F)C[C@H]3C#N)C2(C)C)n1 [Example 51, (2S,4S)-4-Fluoro-1-(2-((1S,3R)-1,2,2-trimethyl-3-(3-methyl-1,2,4-oxadiazol-5-yl)cyclopentylamino)acetyl)pyrrolidine-2-carbonitrile] | 91.4 nM | 160 to 163 °C | 
10 | CC(C)(C)c1nc(C[C@@H]2CC[C@](C)(NCC(=O)N3C[C@@H](F)C[C@H]3C#N)C2(C)C)no1 [Example 58, (2S,4S)-1-(2-((1S,3S)-3-((5-tert-Butyl-1,2,4-oxadiazol-3-yl)methyl)-1,2,2-trimethylcyclopentylamino)acetyl)-4-fluoropyrrolidine-2-carbonitrile] |  | 152 to 154 °C | 91.4%
11 | CC1(C)[C@H](Cc2noc(C3CCCCC3)n2)CC[C@]1(C)NCC(=O)N1C[C@@H](F)C[C@H]1C#N [Example 59, (2S,4S)-1-(2-((1S,3S)-3-((5-Cyclohexyl-1,2,4-oxadiazol-3-yl)methyl)-1,2,2-trimethylcyclopentylamino)acetyl)-4-fluoropyrrolidine-2-carbonitrile] |  | 152 to 153 °C | 67.7%

Further lines, results first:

Row | IC50 [1] | melting point | inhibition at 0.3 µM [1] | SMILES
12 |  | 154 to 157 °C | 84.9% | CC1(C)[C@H](CNS(C)(=O)=O)CC[C@]1(C)NCC(=O)N1C[C@@H](F)C[C@H]1C#N [Example 18, N-(((1R,3S)-3-(2-((2S,4S)-2-Cyano-4-fluoropyrrolidin-1-yl)-2-oxoethylamino)-2,2,3-trimethylcyclopentyl)methyl)methanesulfonamide]
13 | 105 nM | 75 to 78 °C |  | CC1(C)[C@H](CNS(=O)(=O)c2ccc(F)cc2)CC[C@]1(C)NCC(=O)N1C[C@@H](F)C[C@H]1C#N [Example 20]
14 |  | 96 to 99 °C | 63.2% | CC1(C)[C@@H](CNc2ncccc2C#N)CC[C@@]1(C)NCC(=O)N1C[C@@H](F)C[C@H]1C#N [Example 26, 2-(((1S,3R)-3-(2-((2S,4S)-2-Cyano-4-fluoropyrrolidin-1-yl)-2-oxoethylamino)-2,2,3-trimethylcyclopentyl)methylamino)nicotinonitrile]
15 |  | 52 to 58 °C | 47.4% | CC1(C)[C@@H](CNc2ccc(C(F)(F)F)cn2)CC[C@@]1(C)NCC(=O)N1C[C@@H](F)C[C@H]1C#N [Example 27, (2S,4S)-4-Fluoro-1-(2-((1R,3S)-1,2,2-trimethyl-3-((5-(trifluoromethyl)pyridin-2-ylamino)methyl)cyclopentylamino)acetyl)pyrrolidine-2-carbonitrile]
16 | 183 nM | 126 to 128 °C |  | CC1(C)[C@@H](CN2CCCS2(=O)=O)CC[C@@]1(C)NCC(=O)N1C[C@@H](F)C[C@H]1C#N [Example 28, (2S,4S)-1-(2-((1R,3S)-3-[(1,1-Dioxidoisothiazolidin-2-yl)methyl]-1,2,2-trimethylcyclopentylamino)acetyl)-4-fluoropyrrolidine-2-carbonitrile]
17 |  | 108 to 112 °C | 31.9% | CC1(C)[C@@H](CN2CCCC2)CC[C@@]1(C)NCC(=O)N1C[C@@H](F)C[C@H]1C#N [Example 36, (2S,4S)-4-Fluoro-1-(2-((1R,3S)-1,2,2-trimethyl-3-(pyrrolidin-1-ylmethyl)cyclopentylamino)acetyl)pyrrolidine-2-carbonitrile]
18 | 22.4 nM | 123 to 126 °C |  | CC1(C)[C@H](CN2CCCC2)CC[C@]1(C)NCC(=O)N1C[C@@H](F)C[C@H]1C#N [Example 37, (2S,4S)-4-Fluoro-1-(2-((1S,3R)-1,2,2-trimethyl-3-(pyrrolidin-1-ylmethyl)cyclopentylamino)acetyl)pyrrolidine-2-carbonitrile]
19 |  | 130 to 135 °C | 42.6% | CC1(C)[C@@H](CN2CC[C@@H](O)C2)CC[C@@]1(C)NCC(=O)N1C[C@@H](F)C[C@H]1C#N [Example 38, (2S,4S)-4-fluoro-1-(2-((1R,3S)-3-(((R)-3-hydroxypyrrolidin-1-yl)methyl)-1,2,2-trimethylcyclopentylamino)acetyl)pyrrolidine-2-carbonitrile]
20 | 91.3 nM | 220 to 224 °C |  | CC1(C)[C@@H](CS(=O)(=O)c2ccc(S(C)(=O)=O)cc2)CC[C@@]1(C)NCC(=O)N1C[C@@H](F)C[C@H]1C#N [Example 42, (2S,4S)-4-Fluoro-1-(2-((1R,3S)-1,2,2-trimethyl-3-((4-(methylsulfonyl)phenylsulfonyl)methyl)cyclopentylamino)acetyl)pyrrolidine-2-carbonitrile]
21 | 582 nM | 162 to 166 °C |  | CC1(C)[C@@H](CS(=O)(=O)c2ccc(S(C)(=O)=O)cc2)CC[C@@]1(C)NCC(=O)N1CCC[C@H]1C#N [Example 44, (S)-1-(2-((1R,3S)-1,2,2-Trimethyl-3-((4-(methylsulfonyl)phenylsulfonyl)methyl)cyclopentylamino)acetyl)pyrrolidine-2-carbonitrile]
22 |  | 158 to 160 °C | 40.9% | CC1(C)[C@H](CS(=O)(=O)c2ccc(S(C)(=O)=O)cc2)CC[C@]1(C)NCC(=O)N1CCC[C@H]1C#N [Example 46, (S)-1-(2-((1S,3R)-1,2,2-Trimethyl-3-((4-(methylsulfonyl)phenylsulfonyl)methyl)cyclopentylamino)acetyl)pyrrolidine-2-carbonitrile]
23 |  | 121 to 123 °C | 64.9% | Cc1nc(C[C@H]2CC[C@@](C)(NCC(=O)N3C[C@@H](F)C[C@H]3C#N)C2(C)C)no1 [Example 54, (2S,4S)-4-Fluoro-1-(2-((1R,3R)-1,2,2-trimethyl-3-((5-methyl-1,2,4-oxadiazol-3-yl)methyl)cyclopentylamino)acetyl)pyrrolidine-2-carbonitrile]
